Positions count from the first letter of the chain named.
Columns and labels:
Experiment in all cases: isothermal titration calorimetry
Format in all cases: binding
CHIP13 [1] = target: T1, CHIP13 (Lotus japonicus, UniProt D3KU00); details: ectodomain
T1 sequence (D3KU00 33-253): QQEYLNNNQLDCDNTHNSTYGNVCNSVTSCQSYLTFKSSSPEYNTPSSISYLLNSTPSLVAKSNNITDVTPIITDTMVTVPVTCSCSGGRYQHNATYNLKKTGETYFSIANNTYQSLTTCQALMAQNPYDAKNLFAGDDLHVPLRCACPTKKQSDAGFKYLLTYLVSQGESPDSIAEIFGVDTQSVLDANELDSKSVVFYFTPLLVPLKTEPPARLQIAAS

CHIP13 [2] = target: T2, CHIP13 (Lotus japonicus, UniProt D3KU00, Y232A/F233A); details: ectodomain variant
T2 sequence (D3KU00 33-253 Y232A/F233A): T1 sequence (D3KU00 33-253) with Y200A, F201A

LYR4 = target: T3, LYR4 (Medicago truncatula, UniProt G7K7K0); details: ectodomain
T3 sequence (G7K7K0 24-242): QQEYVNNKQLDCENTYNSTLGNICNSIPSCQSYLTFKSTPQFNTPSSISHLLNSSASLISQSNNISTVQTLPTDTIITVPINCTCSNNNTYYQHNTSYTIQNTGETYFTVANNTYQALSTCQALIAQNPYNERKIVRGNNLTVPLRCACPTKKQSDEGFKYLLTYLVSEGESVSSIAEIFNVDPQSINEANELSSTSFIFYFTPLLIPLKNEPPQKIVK

MtCERK1 = target: T4, MtCERK1 (Medicago truncatula, UniProt G7J6P5); details: read-out: affinity; ectodomain
T4 sequence (G7J6P5 30-232): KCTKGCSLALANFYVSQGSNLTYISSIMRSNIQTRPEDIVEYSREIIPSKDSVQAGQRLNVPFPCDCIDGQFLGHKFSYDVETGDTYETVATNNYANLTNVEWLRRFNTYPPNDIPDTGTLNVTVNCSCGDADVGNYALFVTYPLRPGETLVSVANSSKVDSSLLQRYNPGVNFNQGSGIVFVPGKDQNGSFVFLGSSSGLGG

CERK6 = target: T5, CERK6 (Lotus japonicus, UniProt D3KTZ6); details: read-out: affinity; ectodomain; crystal structure: CO5 in LysM1 and LysM2
T5 sequence (D3KTZ6 26-223): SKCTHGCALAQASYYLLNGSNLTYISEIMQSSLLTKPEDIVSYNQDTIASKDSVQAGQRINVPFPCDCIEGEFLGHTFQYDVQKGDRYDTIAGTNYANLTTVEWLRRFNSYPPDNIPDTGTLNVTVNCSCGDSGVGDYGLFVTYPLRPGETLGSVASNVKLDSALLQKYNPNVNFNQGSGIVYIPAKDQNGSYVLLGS

SMILES	Kd (CHIP13 [1]; crystal structure at 1.35 Å: LysM2, LysM3 and bridge domain site)	Kd (CHIP13 [2])	Kd (LYR4)	Kd (MtCERK1)	Kd (CHIP13 [1])	Kd (CERK6)
CC(=O)N[C@H]1[C@H](O[C@H]2[C@H](O)[C@@H](NC(C)=O)[C@H](O[C@H]3[C@H](O)[C@@H](NC(C)=O)[C@H](O[C@H]4[C@H](O)[C@@H](NC(C)=O)C(O)O[C@@H]4CO)O[C@@H]3CO)O[C@@H]2CO)O[C@H](CO)[C@@H](O[C@@H]2O[C@H](CO)[C@@H](O[C@@H]3O[C@H](CO)[C@@H](O[C@@H]4O[C@H](CO)[C@@H](O[C@@H]5O[C@H](CO)[C@@H](O)[C@H](O)[C@H]5NC(C)=O)[C@H](O)[C@H]4NC(C)=O)[C@H](O)[C@H]3NC(C)=O)[C@H](O)[C@H]2NC(C)=O)[C@@H]1O (stereo partly shown) [CO8, octa-N-acetyl-chitooctaose]	0.9 µM	107 ± 80 µM	1.92 µM	–	–	–
CC(=O)N[C@H]1[C@H](O[C@H]2[C@H](O)[C@@H](NC(C)=O)[C@H](O[C@H]3[C@H](O)[C@@H](NC(C)=O)C(O)O[C@@H]3CO)O[C@@H]2CO)O[C@H](CO)[C@@H](O[C@@H]2O[C@H](CO)[C@@H](O[C@@H]3O[C@H](CO)[C@@H](O)[C@H](O)[C@H]3NC(C)=O)[C@H](O)[C@H]2NC(C)=O)[C@@H]1O (stereo partly shown) [CO5, penta-N-acetyl-chitopentaose]	–	–	96 µM	729 µM	1270 µM	2800 µM
